Source: ChEMBL document CHEMBL1133819, “Structure-based design of caspase-1 inhibitor containing a diphenyl ether sulfonamide” (Bioorg Med Chem Lett, 2001)

Tests used:
[1] = target: T1, Caspase-1 (Homo sapiens, UniProt P29466); assay: Inhibitory concentration against caspase-1 was determined
T1 sequence (P29466 whole entry): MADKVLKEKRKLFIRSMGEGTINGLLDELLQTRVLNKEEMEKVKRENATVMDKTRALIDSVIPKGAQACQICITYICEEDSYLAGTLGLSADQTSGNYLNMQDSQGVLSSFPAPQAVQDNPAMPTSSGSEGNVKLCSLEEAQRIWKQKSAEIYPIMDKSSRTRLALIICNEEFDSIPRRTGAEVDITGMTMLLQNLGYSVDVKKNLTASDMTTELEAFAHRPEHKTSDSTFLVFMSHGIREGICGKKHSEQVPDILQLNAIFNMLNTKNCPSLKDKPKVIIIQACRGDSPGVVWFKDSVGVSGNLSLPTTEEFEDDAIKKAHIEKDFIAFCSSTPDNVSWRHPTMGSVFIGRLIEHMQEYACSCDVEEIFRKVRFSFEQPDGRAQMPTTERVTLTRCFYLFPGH

[2] = target: T1, Caspase-1; assay: Binding affinity towards caspase-1 was determined

Row | Compound | IC50 [1] [nM] | Ki [2] [nM]
1 | O=C[C@@H](NS(=O)(=O)c1ccccc1Oc1ccc(-c2ccccc2)cc1)C(=O)O | 4400 | 290
2 | Cc1ccc(Oc2ccccc2S(=O)(=O)N[C@H](C=O)C(=O)O)cc1 | 9000 | 1100
3 | Cc1ccccc1Oc1ccccc1S(=O)(=O)N[C@H](C=O)C(=O)O | 14000 | 3000
4 | O=C[C@@H](NS(=O)(=O)c1ccccc1Oc1ccc(C2CCCCC2)cc1)C(=O)O | 4300 | 900
5 | Cc1cc(Oc2ccccc2S(=O)(=O)N[C@H](C=O)C(=O)O)ccc1C(C)C | 1000 | 110
6 | O=C[C@@H](NS(=O)(=O)c1ccccc1Oc1ccc(C2CCCC2)cc1)C(=O)O | 4800 | 880
7 | CCC(C)c1ccc(Oc2ccccc2S(=O)(=O)N[C@H](C=O)C(=O)O)cc1C (some centres undefined) | 1000 | 100
8 | O=C[C@@H](NS(=O)(=O)c1ccccc1Oc1ccc(-c2ccc(C(=O)O)cc2)cc1)C(=O)O | 58000 | 4200
9 | Cc1cccc(Oc2ccccc2S(=O)(=O)N[C@H](C=O)C(=O)O)c1 | 11000 | 430
10 | Cc1cc(Oc2ccccc2S(=O)(=O)N[C@H](C=O)C(=O)O)cc(C)c1C | 7800 | 450
11 | CC(C)c1cccc(Oc2ccccc2S(=O)(=O)N[C@H](C=O)C(=O)O)c1 | 3700 | 410
12 | CCC(CC)c1ccc(Oc2ccccc2S(=O)(=O)N[C@H](C=O)C(=O)O)cc1 | 3500 | 440
13 | CCC(C)c1ccc(Oc2ccccc2S(=O)(=O)N[C@H](C=O)C(=O)O)cc1 (some centres undefined) | 2200 | 490
14 | O=C[C@@H](NS(=O)(=O)c1ccccc1-c1ccccc1)C(=O)O | 20000 | 1600
15 | O=C[C@@H](NS(=O)(=O)c1ccccc1Oc1ccccc1)C(=O)O | 24000 | 24000
16 | CC(C)c1ccc(Oc2ccccc2S(=O)(=O)N[C@H](C=O)C(=O)O)cc1 | 5300 | 620
17 | Cc1cccc(Oc2ccccc2S(=O)(=O)N[C@H](C=O)C(=O)O)c1C | 13000 | 1000
